Reference: publication PMC5532645, “Design, Synthesis, and Antifouling Activity of Glucosamine-Based Isocyanides” (Marine Drugs, 2017)
Values after ≈ are worked out from the molar mass of the structure shown. Like-named read-outs stand apart in the source and are kept apart here.

What was measured:
[1] = test system: cypris larvae of the barnacle Amphibalanus amphitrite; settings: cited from earlier work
[2] = test system: cypris larvae of the barnacle Amphibalanus amphitrite; experiment: Antifouling assay: settlement and mortality of barnacle cyprids after 48 h; type: in vivo; settings: for EC50: Amphibalanus amphitrite, 48 h, read-out: EC50 (antifouling activity), cypris larvae, 48 h incubation, probit analysis; for toxicity / mortality of cypris larvae: at a concentration of 10 μg/mL
Experimental: (§1) Adult barnacles (Amphibalanus amphitrite) procured from oyster farms at Lake Hamana and a pier at Shimizu bay, Shizuoka, were kept in an aquarium at 20 °C and fed on Artemia salina nauplii. Broods were released as I–II stage nauplii upon immersion in seawater after drying overnight. The nauplii thus obtained were cultured in filtered natural seawater (salinity 28) containing penicillin G (20 μg/mL) and streptomycin sulfate (30 μg/mL) and were fed on the diatom Chaetoceros gracilis at concentrations of 40 × 10^4 cells/mL. […] The cyprids were collected and stored at 4 °C until use (0 days old).
(§2) The test compounds were dissolved in ethanol and aliquots of the solution were transferred to wells of a 24-well polystyrene culture plate and air-dried. Four wells were used for each concentration. To each well, filtered seawater (2.0 mL, salinity 28) and six 2-day-old cyprids were added. The plates were kept in the dark at 25 °C for 48 h. […] Three or four trials were done for each concentration. Probit analysis was used to calculate the EC50 values.

[3] = as above; type: in vivo; settings: cypris larvae, 48 h incubation, read-out: LC50 (toxicity)
Experimental: as §1, §2

[4] = synthetic sample of 1 and its synthetic intermediates
[5] = Amphibalanus amphitrite (barnacle, in vivo, other: immersion in seawater holding the compound)

For `[C-]#[N+][C@@]1(C)CC[C@H](C(C)C)[C@H]2C=C(C)CC[C@@H]21` [Compound 1, 10-isocyano-4-cadinene], the “EC50 (antifouling activity)” value ([1]; natural compound obtained from nudibranchs) is given as 0.14 µg/mL (≈ 0.605 µM), the “LC50 (50% lethal concentration)” value ([1]; natural compound) is given as > 10 µg/mL and the “EC50 (antifouling activity)” value [1, 4] is given as 0.06 µg/mL (≈ 0.259 µM). The LC50 [1, 4] was > 10 µg/mL.

For `CC1=C[C@H]2[C@H](CC1)[C@@H](O)CC[C@@H]2C(C)C` [Compound 2], the “EC50 (antifouling activity)” value [1, 4] is given as 0.31 µg/mL (≈ 1.49 µM) and the LC50 [1, 4] is given as > 10 µg/mL.

For `[C-]#[N+][C@]1(C)CC[C@@H](/C(C)=C/C=C/C(C)C)CC1` [Compound 4, 3-isocyanotheonellin], the “EC50 (antifouling activity)” value ([1]; previously reported) is listed as 0.19 µg/mL (≈ 0.821 µM) and the LC50 ([1]; previously reported) is listed as > 10 µg/mL.

For `[C-]#[N+][C@H]1[C@H](OC(C)=O)O[C@H](COC(C)=O)[C@@H](OC(C)=O)[C@@H]1OC(C)=O` [Compound 6a], the EC50 [2] was > 5 µg/mL, the “toxicity / mortality of cypris larvae” value [2] was “lethal larva was not observed” and the LC50 at 48 h [3, 5] was > 10 µg/mL.

For `[C-]#[N+][C@H]1[C@H](OC(=O)CCCCCCCCCCCCCCC)O[C@H](COC(=O)CCCCCCCCCCCCCCC)[C@@H](OC(=O)CCCCCCCCCCCCCCC)[C@@H]1OC(=O)CCCCCCCCCCCCCCC` [Compound 6b], the EC50 [2] was > 5 µg/mL, the “toxicity / mortality of cypris larvae” value [2] was “lethal larva was not observed” and the LC50 at 48 h [3, 5] was > 10 µg/mL.

In the case of `[C-]#[N+][C@H]1[C@H](Oc2ccccc2)O[C@H](COC(C)=O)[C@@H](OC(C)=O)[C@@H]1OC(C)=O` [Compound 6c], the EC50 [2] is reported as 0.71 µg/mL (≈ 1.81 µM) and the LC50 at 48 h [3, 5] is reported as > 10 µg/mL.

With `[C-]#[N+][C@H]1[C@H](OCc2ccccc2)O[C@H](COC(C)=O)[C@@H](OC(C)=O)[C@@H]1OC(C)=O` [Compound 6d] the EC50 [2] was 0.7 µg/mL (≈ 1.73 µM) and the LC50 at 48 h [3, 5] was > 10 µg/mL.

In the case of `[C-]#[N+][C@H]1[C@H](OCC=C)O[C@H](COC(C)=O)[C@@H](OC(C)=O)[C@@H]1OC(C)=O` [Compound 6e], the EC50 [2] is reported as 0.37 µg/mL (≈ 1.04 µM) and the LC50 at 48 h [3, 5] is reported as > 10 µg/mL.

With `[C-]#[N+][C@H]1[C@H](OC(C)C)O[C@H](COC(C)=O)[C@@H](OC(C)=O)[C@@H]1OC(C)=O` [Compound 6f] the EC50 [2] was 0.23 µg/mL (≈ 0.644 µM) and the LC50 at 48 h [3, 5] was > 10 µg/mL.

For `[C-]#[N+][C@H]1[C@H](OCC(F)(F)F)O[C@H](COC(C)=O)[C@@H](OC(C)=O)[C@@H]1OC(C)=O` [Compound 6g], the EC50 [2] was 0.36 µg/mL (≈ 0.906 µM) and the LC50 at 48 h [3, 5] was > 10 µg/mL.

For `[C-]#[N+][C@H]1[C@H](OC(C)C)O[C@H](COC(=O)CCCCCCC)[C@@H](OC(=O)CCCCCCC)[C@@H]1OC(=O)CCCCCCC` [Compound 6h], the EC50 [2] was 0.79 µg/mL (≈ 1.3 µM) and the LC50 at 48 h [3, 5] was > 10 µg/mL.

In the case of `[C-]#[N+][C@H]1[C@H](OC(C)C)O[C@H](COC(=O)CCCCCCCCCCCCCCC)[C@@H](OC(=O)CCCCCCCCCCCCCCC)[C@@H]1OC(=O)CCCCCCCCCCCCCCC` [Compound 6i], the EC50 [2] is reported as 0.31 µg/mL (≈ 0.328 µM) and the LC50 at 48 h [3, 5] is reported as > 10 µg/mL.

For `[C-]#[N+][C@H]1[C@H](OC(C)C)O[C@H](COC(=O)c2ccccc2)[C@@H](OC(=O)c2ccccc2)[C@@H]1OC(=O)c1ccccc1` [Compound 6j], the EC50 [2] was 0.81 µg/mL (≈ 1.49 µM) and the LC50 at 48 h [3, 5] was > 10 µg/mL.

For `[C-]#[N+][C@H]1[C@H](OC(C)C)O[C@H](CO[Si](C)(C)C(C)(C)C)[C@@H](O[Si](C)(C)C(C)(C)C)[C@@H]1O[Si](C)(C)C(C)(C)C` [Compound 6k], the EC50 [2] was 0.25 µg/mL (≈ 0.436 µM) and the LC50 at 48 h ([3]; Amphibalanus amphitrite (barnacle, in vivo)) was > 10 µg/mL.

For `O=S(=O)([O-])[O-].[Cu+2]` [CuSO4], the “EC50 (antifouling activity)” value ([1]; CuSO4 used as a fouling inhibitor) is given as 0.27 µg/mL.
